Measured values from patent publication US20050090522A1 (priority 2001, published 2005).

system: HIV-1; test: HIV-1 single-round infectious luciferase reporter virus (pseudotype) assay in HeLa CD4 CCR5 cells; assay type: cell-based; conditions: Human immunodeficiency virus 1, HeLa-CD4/CCR5, read-out: EC50 Group from TABLE 1, HeLa CD4 CCR5 cells, single-round infectious luciferase reporter virus
How it was run: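 HeLa CD4 CCR5 cells (5×10^4/well, DMEM + 10% FBS) were treated with compound (final <10 μM) and infected with single-round luciferase reporter virus made in 293 cells, at MOI ~0.01. Luciferase was read 72 h post infection. EC50 came from 10-concentration percent-inhibition curves fitted to a four-parameter logistic model.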

Row | SMILES | EC50 [nM]
1 | CCN(CC)CCN(C)c1cnc(-c2ncc(OC)c3c(C(=O)C(=O)N4CCN(C(=O)c5ccccc5)CC4)c[nH]c23)cn1 [Example 175, 1-benzoyl-4-[(4-methoxy-7-(2-(N-diethylaminoethyl-N-methyl)aminopyrazin-S-yl)-6-azaindol-3-yl)-oxoacetyl]piperazine] | < 1000
2 | COc1cnc(-c2cnc(N(C)CCN(C)C)cn2)c2[nH]cc(C(=O)C(=O)N3CCN(C(=O)c4ccccc4)CC3)c12 [Example 176, 1-benzoyl-4-[(4-methoxy-7-(2-(N-dimethylaminoethyl-N-methyl)aminopyrazin-S-yl)-6-azaindol-3-yl)-oxoacetyl]piperazine] | < 1000
3 | COc1cnc(-c2cnc(N3CCNCC3)cn2)c2[nH]cc(C(=O)C(=O)N3CCN(C(=O)c4ccccc4)CC3)c12 [Example 177, 1-benzoyl-4-[(4-methoxy-7-(2-(N-piperazinyl)-pyrazin-5-yl)-6-azaindol-3-yl)-oxoacetyl]piperazine] | < 1000
4 | COc1cnc(-c2cnc(N3CCOCC3)cn2)c2[nH]cc(C(=O)C(=O)N3CCN(C(=O)c4ccccc4)CC3)c12 [Example 178, 1-benzoyl-4-[(4-methoxy-7-(2-(4-morpholinyl)-pyrazin-5-yl)-6-azaindol-3-yl)-oxoacetyl]piperazine] | < 1000
5 | CCNc1cnc(-c2ncc(OC)c3c(C(=O)C(=O)N4CCN(C(=O)c5ccccn5)CC4)c[nH]c23)cn1 [Example 179, 1-picolinoyl-4-[(4-methoxy-7-(2-ethylaminopyrazin-5-yl)-6-azaindol-3-yl)-oxoacetyl]piperazine] | < 1000
6 | COc1cnc(-c2cnc(C)cn2)c2[nH]cc(C(=O)C(=O)N3CCN(C(=O)c4ccccn4)CC3)c12 [Example 180, 1-picolinoyl-4-[(4-methoxy-7-(2-methylpyrazin-5-yl)-6-azaindol-3-yl)-oxoacetyl]piperazine] | < 1000
7 | COc1cnc(-c2cnc(C3CC3)cn2)c2[nH]cc(C(=O)C(=O)N3CCN(C(=O)c4ccccn4)CC3)c12 [Example 181, 1-picolinoyl-4-[(4-methoxy-7-(2-cyclopropanyl-pyrazin-5-yl)-6-azaindol-3-yl)-oxoacetyl]piperazine] | < 1000
8 | COc1cnc(-c2ncc(OC)c3c(C(=O)C(=O)N4CCN(C(=O)c5ccccn5)CC4)c[nH]c23)cn1 [Example 182, 1-picolinoyl-4-[(4-methoxy-7-(2-methoxy-pyrazin-5-yl)-6-azaindol-3-yl)-oxoacetyl]piperazine] | < 1000
9 | COc1cnc(-c2cc3ccccc3o2)c2[nH]cc(C(=O)C(=O)N3CCN(C(=O)c4ccccn4)CC3)c12 [Example 183, 1-picolinoyl-4-[(4-methoxy-7-(benzofuran-2-yl)-6-azaindol-3-yl)-oxoacetyl]piperazine] | < 1000
10 | CCN(CC)C(=O)c1cnc(-c2ncc(OC)c3c(C(=O)C(=O)N4CCN(C(=O)c5ccccn5)CC4)c[nH]c23)cn1 [Example 184, 1-picolinoyl-4-[(4-methoxy-7-(2-diethylaminocarbonyl-pyrazin-5-yl)-6-azaindol-3-yl)-oxoacetyl]piperazine] | < 1000
11 | COc1cnc(-c2cnc(N3CCCC3)cn2)c2[nH]cc(C(=O)C(=O)N3CCN(C(=O)c4ccccn4)CC3)c12 [Example 185] | < 1000
12 | COc1cnc(-c2cnc3ccccc3n2)c2[nH]cc(C(=O)C(=O)N3CCN(C(=O)c4ccccn4)CC3)c12 [Example 186, 1-picolinoyl-4-[(4-methoxy-7-(quinoxakin-2-yl)-6-azaindol-3-yl)-oxoacetyl]piperazine] | < 1000
13 | COc1cnc(-n2ccc(C(F)(F)F)n2)c2[nH]cc(C(=O)C(=O)N3CCN(C(=O)c4ccccc4)CC3)c12 [Example 192, 1-benzoyl-4-[(4-methoxy-7-(3-trifluoromethylpyrazol-1-yl)-6-azaindol-3-yl)-oxoacetyl]piperazine] | < 1000
14 | COc1cnc(-c2cnccn2)c2[nH]cc(C(=O)C(=O)N3CCN(C(=O)c4cnccn4)CC3)c12 [Example 195] | < 1000
15 | COc1cnc(-c2cnccn2)c2[nH]cc(C(=O)C(=O)N3CCN(C(=O)c4ccno4)CC3)c12 [Example 196] | < 1000
16 | COc1cnc(-c2cnccn2)c2[nH]cc(C(=O)C(=O)N3CCN(C(=O)c4csnn4)CC3)c12 [Example 197] | < 1000
17 | COc1cnc(-c2cnccn2)c2[nH]cc(C(=O)C(=O)N3CCN(C(=O)c4nc(N)n[nH]4)CC3)c12 [Example 198] | < 1000
18 | CCCOC(=O)N1CCN(C(=O)C(=O)c2c[nH]c3c(-c4cnccn4)ncc(OC)c23)CC1 [Example 199] | < 1000
19 | COc1cnc(-c2cnccn2)c2[nH]cc(C(=O)C(=O)N3CCN(C(=O)c4ncccc4C)CC3)c12 [Example 200] | < 1000
20 | COc1cnc(-c2cnccn2)c2[nH]cc(C(=O)C(=O)N3CCN(C(=O)c4cccc(C)n4)CC3)c12 [Example 201] | < 1000
21 | CCOC(=O)c1cc(-c2ncc(F)c3c(C(=O)C(=O)N4CCN(C(=O)c5ccccc5)CC4)c[nH]c23)n[nH]1 [Example 209] | < 1000
22 | O=C(NCCN1CCOCC1)c1cc(-c2ncc(F)c3c(C(=O)C(=O)N4CCN(C(=O)c5ccccc5)CC4)c[nH]c23)n[nH]1 [Example 213] | < 1000
23 | O=C(C(=O)N1CCN(C(=O)c2ccccc2)CC1)c1c[nH]c2c(-n3cncn3)ncc(F)c12 [Example 215] | < 1000
24 | O=C(C(=O)N1CCN(C(=O)c2ccccc2)CC1)c1c[nH]c2c(-n3ccnc3)ncc(F)c12 [Example 218] | < 1000
25 | O=C(C(=O)N1CCN(C(=O)c2ccccc2)CC1)c1c[nH]c2c(-n3cccn3)ncc(F)c12 [Example 219] | < 1000
26 | COc1cnc(-n2nccc2C)c2[nH]cc(C(=O)C(=O)N3CCN(C(=O)c4ccccc4)CC3)c12 [Example 240, 1-benzoyl-4-[(4-methoxy-7-(5-methyl-pyrazol-1-yl)-6-azaindol-3-yl)-oxoacetyl]piperazine] | < 1000

same assay, conditions: Human immunodeficiency virus 1, HeLa-CD4/CCR5, read-out: EC50 Group from Table 1, Table 2-1; HeLa CD4 CCR5 cells, single-round luciferase reporter virus

Row | SMILES | EC50 [nM]
27 | COc1cnc(-c2cnccn2)c2[nH]cc(C(=O)C(=O)N3CCN(C(=O)c4ccccn4)C(C)C3)c12 (centres unmarked) [Example 194, 2-methyl-1-picolinoyl-4-[(4-methoxy-7-(pyrazin-2-yl)-6-azaindol-3-yl)-oxoacetyl]piperazine] | < 1000
28 | CCCc1ccn(-c2ncc(OC)c3c(C(=O)C(=O)N4CCN(C(=O)c5ccccc5)[C@H](C)C4)c[nH]c23)n1 [Example 231, (R)-1-benzoyl-2-methyl-4-[(4-methoxy-7-(3-propyl-pyrazol-1-yl)-6-azaindol-3-yl)-oxoacetyl]piperazine] | < 1000
29 | COc1cnc(-n2ccc(C3CCC3)n2)c2[nH]cc(C(=O)C(=O)N3CCN(C(=O)c4ccccc4)[C@H](C)C3)c12 [Example 232, (R)-1-benzoyl-2-methyl-4-[(4-methoxy-7-(3-cycloputyl-pyrazol-1-yl)-6-azaindol-3-yl)-oxoacetyl]piperazine] | < 1000
30 | CCOc1ccn(-c2ncc(OC)c3c(C(=O)C(=O)N4CCN(C(=O)c5ccccc5)[C@H](C)C4)c[nH]c23)n1 [Example 233, (R)-1-benzoyl-2-methyl-4-[(4-methoxy-7-(3-ethoxy-pyrazol-1-yl)-6-azaindol-3-yl)-oxoacetyl]piperazine] | < 1000
31 | COc1cnc(-n2ccc(CCC(=O)O)n2)c2[nH]cc(C(=O)C(=O)N3CCN(C(=O)c4ccccc4)[C@H](C)C3)c12 [Example 234, (R)-1-benzoyl-2-methyl-4-[(4-methoxy-7-(3-(2-hydroxylcarbonylethan-1-yl)-pyrazol-1-yl)-6-azaindol-3-yl)-oxoacetyl]piperazine] | < 1000
32 | COc1cnc(-n2ccc(C(C)O)n2)c2[nH]cc(C(=O)C(=O)N3CCN(C(=O)c4ccccc4)[C@H](C)C3)c12 (stereo partly drawn) [Example 235, (R)-1-benzoyl-2-methyl-4-[(4-methoxy-7-(3-(1-hydroxylethyl)-pyrazol-1-yl)-6-azaindol-3-yl)-oxoacetyl]piperazine] | < 1000
33 | COc1cnc(-n2cc(CO)cn2)c2[nH]cc(C(=O)C(=O)N3CCN(C(=O)c4ccccc4)C[C@H]3C)c12 [Example 237, (R)-1-benzoyl-3-methyl-4-[(4-methoxy-7-(4-hydroxylmethyl-pyrazol-1-yl)-6-azaindol-3-yl)-oxoacetyl]piperazine] | < 1000
34 | COCc1ccn(-c2ncc(OC)c3c(C(=O)C(=O)N4CCN(C(=O)c5ccccc5)[C@H](C)C4)c[nH]c23)n1 [Example 238, (R)-1-benzoyl-2-methyl-4-[(4-methoxy-7-(3-methoxymethyl-pyrazol-1-yl)-6-azaindol-3-yl)-oxoacetyl]piperazine] | < 1000
35 | COc1cnc(-n2ccc(CN(C)C)n2)c2[nH]cc(C(=O)C(=O)N3CCN(C(=O)c4ccccc4)[C@H](C)C3)c12 [Example 239, (R)-1-benzoyl-2-methyl-4-[(4-methoxy-7-(3-(N,N-dimethylamino)methyl-pyrazol-1-yl)-6-azaindol-3-yl)-oxoacetyl]piperazine] | < 1000
36 | COc1cnc(-n2nccc2C)c2[nH]cc(C(=O)C(=O)N3CCN(C(=O)c4ccccc4)[C@H](C)C3)c12 [Example 242, (R)-1-benzoyl-2-methyl-4-[(4-methoxy-7-(5-methyl-pyrazol-1-yl)-6-azaindol-3-yl)-oxoacetyl]piperazine] | < 1000

same assay, conditions: Human immunodeficiency virus 1, HeLa-CD4/CCR5, read-out: EC50 Group from Table 1, Table 4; HeLa CD4 CCR5 cells, single-round luciferase reporter virus

Row | SMILES | EC50 [nM]
37 | CCOC(=O)c1cc(-c2ccnc3c(C(=O)C(=O)N4CCN(C(=O)c5ccccc5)CC4)c[nH]c23)n[nH]1 [Example 202, 5-{3-[2-(4-Benzoyl-piperazin-1-yl)-2-oxo-acetyl]-1H-pyrrolo[3,2-b]pyridin-7-yl}-2H-pyrazole-3-carboxylic acid ethyl ester] | < 1000
38 | O=C(C(=O)N1CCN(C(=O)c2ccccc2)CC1)c1c[nH]c2c(-c3cc4ccccc4o3)ccnc12 [Example 203, 1-(7-benzofuran-2-yl-1H-pyrrolo[3,2-b]pyridin-3-yl)-2-(4-benzoyl-piperazin-1-yl)-ethane-1,2-dione] | < 1000
